system: Felis catus; assay: In vivo antagonist activity at beta-1 adrenergic receptor in cat assessed as inhibition of isoproterenol-induced tachycardia administered as infusion for 30 mins by cardiotachometric analysis; assay type: functional; details: 0.5 h

Row | Structure (SMILES) | ED50
1 | CCOc1cc(CNC(=O)CC)ccc1OCC(O)CNC(C)C (stereo unspecified) | 0.331 mg/kg
2 | CC(=O)NCc1cccc(OCC(O)CNC(C)C)c1 (stereo unspecified) | 0.383 mg/kg
3 | CCCC(=O)NCc1ccc(OCC(O)CNC(C)C)cc1 (stereo unspecified) | 1.4 mg/kg
4 | CCCCNC(=O)NCCc1ccc(OCC(O)CNC(C)C)cc1 (stereo unspecified) | 0.515 mg/kg
5 | CC(C)NCC(O)COc1ccc(CNC(=O)C(C)C)cc1Br (stereo unspecified) | 1.1 mg/kg
6 | CCOc1cc(CNC(=O)CC)ccc1OCC(O)CNC(C)(C)C (stereo unspecified) | 1.41 mg/kg
7 | CNC(=O)NCCc1ccc(OCC(O)CNC(C)C)cc1 (stereo unspecified) | 0.193 mg/kg
8 | CCCNC(=O)NCCc1ccc(OCC(O)CNC(C)C)c(OC)c1 (stereo unspecified) | 0.867 mg/kg
9 | CCC(=O)NCc1ccc(OCC(O)CNC(C)(C)C)c(Br)c1 (stereo unspecified) | 0.1 mg/kg
10 | COc1cc(CNC(N)=O)ccc1OCC(O)CNC(C)(C)C (stereo unspecified) | 0.075 mg/kg
11 | CNC(=O)NCCc1ccc(OCC(O)CNC(C)C)c(Br)c1 (stereo unspecified) | 0.88 mg/kg
12 | CNC(=O)NCc1ccc(OCC(O)CNC(C)C)c(Cl)c1 (stereo unspecified) | 0.381 mg/kg
13 | CC(=O)NCc1ccc(OCC(O)CNC(C)C)cc1 (stereo unspecified) | 0.142 mg/kg
14 | COc1cc(CNC(C)=O)ccc1OCC(O)CNC(C)(C)C (stereo unspecified) | 0.045 mg/kg
15 | CCCNC(=O)NCCc1ccc(OCC(O)CNC(C)(C)C)cc1 (stereo unspecified) | 0.266 mg/kg
16 | CCCCCCC(=O)NCc1ccc(OCC(O)CNC(C)(C)C)c(Cl)c1 (stereo unspecified) | 1.42 mg/kg
17 | COc1ccc(CCNCC(O)COc2ccc(CNC(C)=O)cc2Cl)c(OC)c1 (stereo unspecified) | 1.5 mg/kg
18 | CCC(=O)NCc1ccc(OCC(O)CNC(C)C)c(OC)c1 (stereo unspecified) | 0.449 mg/kg
19 | CCC(=O)NCc1ccc(OCC(O)CNC(C)C)c(Cl)c1 (stereo unspecified) | 0.63 mg/kg
20 | CCC(=O)NCc1ccccc1OCC(O)CNC(C)C (stereo unspecified) | 0.27 mg/kg
21 | CCCc1cc(CNC(C)=O)ccc1OCC(O)CNC(C)C (stereo unspecified) | 0.04 mg/kg
22 | CCNC(=O)NCCc1ccc(OCC(O)CNC(C)C)cc1 (stereo unspecified) | 1.75 mg/kg
23 | CC(C)NCC(O)COc1ccc(CNC(N)=O)cc1Br (stereo unspecified) | 0.106 mg/kg

Row | Structure (SMILES) | ED50
24 | CNC(=O)NCc1ccc(OCC(O)CNC(C)C)c(OC)c1 (stereo unspecified) | 0.794 mg/kg
25 | CNC(=O)NCc1ccc(OCC(O)CNC(C)C)c(Br)c1 (stereo unspecified) | 0.572 mg/kg
26 | CCC(=O)NCc1ccc(OCC(O)CNC(C)C)cc1 (stereo unspecified) | 0.658 mg/kg
27 | CCNC(=O)NCc1ccc(OCC(O)CNC(C)C)c(Cl)c1 (stereo unspecified) | 1.76 mg/kg
28 | COc1cc(CNC(N)=O)ccc1OCC(O)CNC(C)C (stereo unspecified) | 0.072 mg/kg
29 | CC(=O)NCc1cc(C)ccc1OCC(O)CNC(C)C (stereo unspecified) | 0.381 mg/kg
30 | CCCC(=O)NCc1ccc(OCC(O)CNC(C)(C)C)c(OC)c1 (stereo unspecified) | 0.282 mg/kg
31 | CCCc1cc(CNC(=O)CC)ccc1OCC(O)CNC(C)C (stereo unspecified) | 0.163 mg/kg
32 | CC(=O)NCc1ccc(OCC(O)CNC(C)(C)C)cc1 (stereo unspecified) | 0.21 mg/kg
33 | CCCCCCC(=O)NCc1ccccc1OCC(O)CNC(C)C (stereo unspecified) | 1.16 mg/kg
34 | CCC(=O)NCc1ccc(OCC(O)CNC(C)(C)C)c(OC)c1 (stereo unspecified) | 1.09 mg/kg
35 | COc1cc(CNC(C)=O)ccc1OCC(O)CNC(C)C (stereo unspecified) | 0.312 mg/kg
36 | CC(C)NCC(O)COc1ccc(CCNC(N)=O)cc1 (stereo unspecified) | 0.101 mg/kg
37 | CC(=O)NCc1ccccc1OCC(O)CNC(C)(C)C (stereo unspecified) | 0.13 mg/kg
38 | C=CCc1cc(CNC(C)=O)ccc1OCC(O)CNC(C)C (stereo unspecified) | 0.035 mg/kg
39 | CC(=O)NCc1ccc(OCC(O)CNC(C)C)c(Br)c1 (stereo unspecified) | 0.083 mg/kg
40 | COc1cc(CNC(=O)C(C)C)ccc1OCC(O)CNC(C)C (stereo unspecified) | 1.14 mg/kg
41 | CC(C)NCC(O)COc1ccc(CNC(N)=O)cc1 (stereo unspecified) | 0.117 mg/kg
42 | CCC(=O)NCc1ccc(OCC(O)CNC(C)C)c(Br)c1 (stereo unspecified) | 0.269 mg/kg
43 | CCCNC(=O)NCCc1ccc(OCC(O)CNC(C)C)cc1 (stereo unspecified) | 0.065 mg/kg
44 | CC(C)NCC(O)COc1ccccc1CNC(=O)c1ccc(Cl)cc1 (stereo unspecified) | 0.304 mg/kg
45 | CC(=O)NCc1ccc(OCC(O)CNC(C)(C)C)c(Cl)c1 (stereo unspecified) | 0.021 mg/kg
46 | C=CCc1cc(CNC(=O)CC)ccc1OCC(O)CNC(C)C (stereo unspecified) | 0.098 mg/kg

system: Rattus norvegicus; assay: Partial agonist activity at beta adrenergic receptor in catecholamine-depleted rat assessed as change in heart rate at 2.5 mg/kg, iv; assay type: functional; details: not given

Row | Structure (SMILES) | Activity
47 | CCOc1cc(CNC(=O)CC)ccc1OCC(O)CNC(C)C (stereo unspecified) | -10 bpm
48 | CC(C)NCC(O)COc1ccc(CNC(=O)C(C)C)cc1Br (stereo unspecified) | -16 bpm
49 | CCC(=O)NCc1ccc(OCC(O)CNC(C)(C)C)c(Br)c1 (stereo unspecified) | 0 bpm
50 | CC(=O)NCc1ccc(OCC(O)CNC(C)C)cc1 (stereo unspecified) | 2 bpm
51 | COc1cc(CNC(C)=O)ccc1OCC(O)CNC(C)(C)C (stereo unspecified) | -16 bpm
52 | CCC(=O)NCc1ccc(OCC(O)CNC(C)C)c(OC)c1 (stereo unspecified) | -19 bpm
53 | CCC(=O)NCc1ccc(OCC(O)CNC(C)C)c(Cl)c1 (stereo unspecified) | -15 bpm
54 | CCC(=O)NCc1ccccc1OCC(O)CNC(C)C (stereo unspecified) | 44 bpm
55 | CCCc1cc(CNC(C)=O)ccc1OCC(O)CNC(C)C (stereo unspecified) | -17 bpm
56 | CCC(=O)NCc1ccc(OCC(O)CNC(C)C)cc1 (stereo unspecified) | -6 bpm
57 | CC(=O)NCc1cc(C)ccc1OCC(O)CNC(C)C (stereo unspecified) | 5 bpm
58 | CCCC(=O)NCc1ccc(OCC(O)CNC(C)(C)C)c(OC)c1 (stereo unspecified) | -10 bpm
59 | CCCc1cc(CNC(=O)CC)ccc1OCC(O)CNC(C)C (stereo unspecified) | 4 bpm
60 | CC(=O)NCc1ccc(OCC(O)CNC(C)(C)C)cc1 (stereo unspecified) | -7 bpm
61 | CCC(=O)NCc1ccc(OCC(O)CNC(C)(C)C)c(OC)c1 (stereo unspecified) | -12 bpm
62 | COc1cc(CNC(C)=O)ccc1OCC(O)CNC(C)C (stereo unspecified) | -9 bpm
63 | CC(=O)NCc1ccccc1OCC(O)CNC(C)(C)C (stereo unspecified) | 41 bpm
64 | C=CCc1cc(CNC(C)=O)ccc1OCC(O)CNC(C)C (stereo unspecified) | -16 bpm
65 | CC(=O)NCc1ccc(OCC(O)CNC(C)C)c(Br)c1 (stereo unspecified) | -17 bpm
66 | COc1cc(CNC(=O)C(C)C)ccc1OCC(O)CNC(C)C (stereo unspecified) | -16 bpm
67 | CCC(=O)NCc1ccc(OCC(O)CNC(C)C)c(Br)c1 (stereo unspecified) | -15 bpm
68 | CC(C)NCC(O)COc1ccccc1CNC(=O)c1ccc(Cl)cc1 (stereo unspecified) | 14 bpm
69 | CC(=O)NCc1ccc(OCC(O)CNC(C)(C)C)c(Cl)c1 (stereo unspecified) | -30 bpm
70 | C=CCc1cc(CNC(=O)CC)ccc1OCC(O)CNC(C)C (stereo unspecified) | -10 bpm

system: Felis catus; assay: In vivo antagonist activity at beta-2 adrenergic receptor in cat assessed as inhibition of vasodepressor response administered as infusion for 30 mins relative to control; assay type: functional; details: not given

Row | Structure (SMILES) | inhibition (INH)
71 | CCOc1cc(CNC(=O)CC)ccc1OCC(O)CNC(C)C (stereo unspecified) | 48%
72 | CC(=O)NCc1cccc(OCC(O)CNC(C)C)c1 (stereo unspecified) | 83%
73 | CCCC(=O)NCc1ccc(OCC(O)CNC(C)C)cc1 (stereo unspecified) | 51%
74 | CCCCNC(=O)NCCc1ccc(OCC(O)CNC(C)C)cc1 (stereo unspecified) | 0%
75 | CC(C)NCC(O)COc1ccc(CNC(=O)C(C)C)cc1Br (stereo unspecified) | 43%
76 | CC(=O)Nc1ccc(OCC(O)CNC(C)C)cc1 (stereo unspecified) [PRACTOLOL] | 8%
77 | CCOc1cc(CNC(=O)CC)ccc1OCC(O)CNC(C)(C)C (stereo unspecified) | 68%
78 | CCCNC(=O)NCCc1ccc(OCC(O)CNC(C)C)c(OC)c1 (stereo unspecified) | 6%
79 | CCC(=O)NCc1ccc(OCC(O)CNC(C)(C)C)c(Br)c1 (stereo unspecified) | 21%
80 | COc1cc(CNC(N)=O)ccc1OCC(O)CNC(C)(C)C (stereo unspecified) | 68%
81 | CNC(=O)NCCc1ccc(OCC(O)CNC(C)C)c(Br)c1 (stereo unspecified) | 97%
82 | CNC(=O)NCc1ccc(OCC(O)CNC(C)C)c(Cl)c1 (stereo unspecified) | 21%
83 | CC(=O)NCc1ccc(OCC(O)CNC(C)C)cc1 (stereo unspecified) | 0%
84 | COc1cc(CNC(C)=O)ccc1OCC(O)CNC(C)(C)C (stereo unspecified) | 70%
85 | CCCNC(=O)NCCc1ccc(OCC(O)CNC(C)(C)C)cc1 (stereo unspecified) | 27%
86 | CCCCCCC(=O)NCc1ccc(OCC(O)CNC(C)(C)C)c(Cl)c1 (stereo unspecified) | 40%
87 | COc1ccc(CCNCC(O)COc2ccc(CNC(C)=O)cc2Cl)c(OC)c1 (stereo unspecified) | 17%
88 | CCC(=O)NCc1ccc(OCC(O)CNC(C)C)c(OC)c1 (stereo unspecified) | 37%
89 | CCC(=O)NCc1ccc(OCC(O)CNC(C)C)c(Cl)c1 (stereo unspecified) | 83%
90 | CCC(=O)NCc1ccccc1OCC(O)CNC(C)C (stereo unspecified) | 0%
91 | CCCc1cc(CNC(C)=O)ccc1OCC(O)CNC(C)C (stereo unspecified) | 51%
92 | CCNC(=O)NCCc1ccc(OCC(O)CNC(C)C)cc1 (stereo unspecified) | 51%
93 | CC(C)NCC(O)COc1ccc(CNC(N)=O)cc1Br (stereo unspecified) | 25%

Row | Structure (SMILES) | inhibition (INH)
94 | CNC(=O)NCc1ccc(OCC(O)CNC(C)C)c(OC)c1 (stereo unspecified) | 87%
95 | CNC(=O)NCc1ccc(OCC(O)CNC(C)C)c(Br)c1 (stereo unspecified) | 0%
96 | CCC(=O)NCc1ccc(OCC(O)CNC(C)C)cc1 (stereo unspecified) | 16%
97 | CCNC(=O)NCc1ccc(OCC(O)CNC(C)C)c(Cl)c1 (stereo unspecified) | 63%
98 | COc1cc(CNC(N)=O)ccc1OCC(O)CNC(C)C (stereo unspecified) | 0%
99 | CC(=O)NCc1cc(C)ccc1OCC(O)CNC(C)C (stereo unspecified) | 80%
100 | CCCC(=O)NCc1ccc(OCC(O)CNC(C)(C)C)c(OC)c1 (stereo unspecified) | 17%
101 | CCCc1cc(CNC(=O)CC)ccc1OCC(O)CNC(C)C (stereo unspecified) | 34%
102 | CC(=O)NCc1ccc(OCC(O)CNC(C)(C)C)cc1 (stereo unspecified) | 32%
103 | CCCCCCC(=O)NCc1ccccc1OCC(O)CNC(C)C (stereo unspecified) | 19%
104 | CCC(=O)NCc1ccc(OCC(O)CNC(C)(C)C)c(OC)c1 (stereo unspecified) | 72%
105 | COc1cc(CNC(C)=O)ccc1OCC(O)CNC(C)C (stereo unspecified) | 5%
106 | CC(C)NCC(O)COc1ccc(CCNC(N)=O)cc1 (stereo unspecified) | 47%
107 | CC(=O)NCc1ccccc1OCC(O)CNC(C)(C)C (stereo unspecified) | 63%
108 | C=CCc1cc(CNC(C)=O)ccc1OCC(O)CNC(C)C (stereo unspecified) | 61%
109 | CC(=O)NCc1ccc(OCC(O)CNC(C)C)c(Br)c1 (stereo unspecified) | 5%
110 | COc1cc(CNC(=O)C(C)C)ccc1OCC(O)CNC(C)C (stereo unspecified) | 3%
111 | CC(C)NCC(O)COc1ccc(CNC(N)=O)cc1 (stereo unspecified) | 48%
112 | CCC(=O)NCc1ccc(OCC(O)CNC(C)C)c(Br)c1 (stereo unspecified) | 7%
113 | CCCNC(=O)NCCc1ccc(OCC(O)CNC(C)C)cc1 (stereo unspecified) | 19%
114 | CC(C)NCC(O)COc1ccccc1CNC(=O)c1ccc(Cl)cc1 (stereo unspecified) | 45%
115 | CC(=O)NCc1ccc(OCC(O)CNC(C)(C)C)c(Cl)c1 (stereo unspecified) | 30%
116 | C=CCc1cc(CNC(=O)CC)ccc1OCC(O)CNC(C)C (stereo unspecified) | 3%
